Experimental data taken from ChEMBL document CHEMBL4765462, “Synthetic Lethality through the Lens of Medicinal Chemistry” (J Med Chem, 2020).

How the values were obtained:
[1] = target: T1, DNA repair protein RAD52 homolog (Homo sapiens) (UniProt P43351); assay: Inhibition of FAM-conjugated ssDNA binding to His-tagged wild type RAD52 (unknown origin) expressed in Rosetta2(DE3)/pLysS cells measured after 30 mins by high-throughput fluorescence polarization assay relative to control; parameters: concentration or dose not given beside the values
T1 sequence (whole entry): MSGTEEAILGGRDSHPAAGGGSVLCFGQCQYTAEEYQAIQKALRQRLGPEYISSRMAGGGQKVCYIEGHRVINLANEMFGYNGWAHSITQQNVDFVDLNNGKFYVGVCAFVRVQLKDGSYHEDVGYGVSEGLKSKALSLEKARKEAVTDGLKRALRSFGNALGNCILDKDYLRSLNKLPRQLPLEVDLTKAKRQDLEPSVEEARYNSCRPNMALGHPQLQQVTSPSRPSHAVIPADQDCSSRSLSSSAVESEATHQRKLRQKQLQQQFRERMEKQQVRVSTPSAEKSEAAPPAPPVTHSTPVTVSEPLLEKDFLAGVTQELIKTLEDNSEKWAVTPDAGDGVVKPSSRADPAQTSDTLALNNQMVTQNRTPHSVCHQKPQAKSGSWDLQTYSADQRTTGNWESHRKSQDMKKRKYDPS

[2] = target: T2, DNA repair protein RAD52 homolog (Homo sapiens, UniProt P43351); assay: Inhibition of FAM-conjugated ssDNA binding to His-tagged wild type RAD52 (unknown origin) expressed in Rosetta2(DE3)/pLysS cells measured after 30 mins by fluorescence polarization assay
T2 sequence (P43351 whole entry): T1 sequence (whole entry)

U-87 MG = assay: Antimigratory activity against human U87 cells up to 10 microM incubated for 6 hrs by CellTiter-Glo luminescent cell viability assay relative to control; type: functional, U-87MG ATCC; conditions: dose microM <=10
[3] = Antimigratory activity against human U-1242 cells at 3 uM incubated for 1 hr by scratch assay; type: functional, U-1242MG
[4] = Inhibition of human placental DNA-PK/Ku using EPPLSQEAFADLWKK as substrate in presence of [32P]ATP incubated for 12 mins by scintillation counting method
[5] = target: Cyclin-dependent kinase 13 (Homo sapiens, UniProt Q14004); assay: Inhibition of CDK13 (unknown origin)
[6] = target: Cyclin-dependent kinase 12 (Homo sapiens, UniProt Q9NYV4); assay: Inhibition of CDK12 (unknown origin)
Wee1-like protein kinase = Wee1-like protein kinase (Homo sapiens, UniProt P30291); assay: Displacement of kinase tracer178 from recombinant WEE1 (unknown origin) incubated for 1 hr by lanthascreen TR-FRET assay
[7] = target: Serine-protein kinase ATM (Homo sapiens, UniProt Q13315); assay: Inhibition of human HeLa nuclear extract derived ATM using glutathioneS-transferase-p53N66 as substrate preincubated for 10 mins followed by ATP addition and measured after 1 hr by ELISA
BXPC-3 = assay: Growth inhibition of BRCA2-proficient human BxPC3 cells at 10 uM assessed as cell survival incubated for 6 days with replacement of medium for every 3 days by CCK8 assay relative to control; type: functional; conditions: BXPC-3, 144 h, time 6 day, read-out: Survival
CAPAN-1 = assay: Growth inhibition of BRCA2-deficient human Capan-1 cells at 10 uM incubated for 6 days with replacement of medium for every 3 days by CCK8 assay relative to control; type: functional; conditions: CAPAN-1, 144 h, time 6 day, read-out: GI
[8] = target: Serine/threonine-protein kinase Sgk1 (Homo sapiens) (UniProt O00141); assay: Inhibition of human SGK expressed in baculovirus expression system at 1 uM relative to control
[9] = target: NUAK family SNF1-like kinase 1 (Homo sapiens) (UniProt O60285); assay: Inhibition of human NUAK1 expressed in baculovirus expression system at 1 uM relative to control
[10] = target: Serine/threonine-protein kinase ATR (Homo sapiens, UniProt Q13535); assay: Inhibition of ATR (unknown origin)
[11] = target: Serine/threonine-protein kinase mTOR (Homo sapiens, UniProt P42345); assay: Inhibition of mTOR (unknown origin)
[12] = target: Macrophage colony-stimulating factor 1 receptor (Homo sapiens) (UniProt P07333); assay: Inhibition of human CSF1R expressed in baculovirus expression system at 1 uM relative to control
[13] = target: Voltage-gated inwardly rectifying potassium channel KCNH2 (Homo sapiens, UniProt Q12809); assay: Inhibition of human ERG
[14] = Inhibition of DNA-PK (unknown origin); parameters: species or system Homo sapiens
BT-549 = assay: Potentiation of veliparib-induced cytotoxicity against human BT549 cells incubated for 7 days by celltiter-Glo assay relative to control; type: functional; conditions: time 7 day
HCC1937 = assay: Potentiation of veliparib-induced cytotoxicity against human HCC1937 cells incubated for 7 days by celltiter-Glo assay relative to control; type: functional; conditions: time 7 day
HCC38 = assay: Potentiation of veliparib-induced cytotoxicity against human HCC38 cells incubated for 7 days by celltiter-Glo assay relative to control; type: functional; conditions: time 7 day
Hs-578T = assay: Potentiation of veliparib-induced cytotoxicity against human Hs578T cells incubated for 7 days by celltiter-Glo assay relative to control; type: functional; conditions: time 7 day
MDA-MB-436 = assay: Potentiation of veliparib-induced cytotoxicity against human MDA-MB-436 cells incubated for 7 days by celltiter-Glo assay relative to control; type: functional; conditions: time 7 day
MDA-MB-468 = assay: Potentiation of veliparib-induced cytotoxicity against human MDA-MB-468 cells incubated for 7 days by celltiter-Glo assay relative to control; type: functional; conditions: time 7 day
BT-20 = assay: Potentiation of veliparib-induced cytotoxicity against human BT20 cells incubated for 7 days by celltiter-Glo assay relative to control; type: functional; conditions: time 7 day
SUM149PT = assay: Potentiation of veliparib-induced cytotoxicity against human SUM149PT cells incubated for 7 days by celltiter-Glo assay relative to control; type: functional; conditions: time 7 day
MDA-MB-231 = assay: Potentiation of veliparib-induced cytotoxicity against human MDA-MB-231 cells incubated for 7 days by celltiter-Glo assay relative to control; type: functional; conditions: time 7 day
[15] = target: Cyclin-dependent kinase 1 (Homo sapiens, UniProt P06493); assay: Inhibition of CDK1 (unknown origin)
[16] = target: T2, DNA repair protein RAD52 homolog; assay: Inhibition of 6His-tagged human RD52 assessed as reduction in RD52 binding to Cy3-dT30-Cy5 ssDNA incubated for 30 mins by FRET assay

Chain of Serine/threonine-protein kinase ATR (Q13535 whole entry): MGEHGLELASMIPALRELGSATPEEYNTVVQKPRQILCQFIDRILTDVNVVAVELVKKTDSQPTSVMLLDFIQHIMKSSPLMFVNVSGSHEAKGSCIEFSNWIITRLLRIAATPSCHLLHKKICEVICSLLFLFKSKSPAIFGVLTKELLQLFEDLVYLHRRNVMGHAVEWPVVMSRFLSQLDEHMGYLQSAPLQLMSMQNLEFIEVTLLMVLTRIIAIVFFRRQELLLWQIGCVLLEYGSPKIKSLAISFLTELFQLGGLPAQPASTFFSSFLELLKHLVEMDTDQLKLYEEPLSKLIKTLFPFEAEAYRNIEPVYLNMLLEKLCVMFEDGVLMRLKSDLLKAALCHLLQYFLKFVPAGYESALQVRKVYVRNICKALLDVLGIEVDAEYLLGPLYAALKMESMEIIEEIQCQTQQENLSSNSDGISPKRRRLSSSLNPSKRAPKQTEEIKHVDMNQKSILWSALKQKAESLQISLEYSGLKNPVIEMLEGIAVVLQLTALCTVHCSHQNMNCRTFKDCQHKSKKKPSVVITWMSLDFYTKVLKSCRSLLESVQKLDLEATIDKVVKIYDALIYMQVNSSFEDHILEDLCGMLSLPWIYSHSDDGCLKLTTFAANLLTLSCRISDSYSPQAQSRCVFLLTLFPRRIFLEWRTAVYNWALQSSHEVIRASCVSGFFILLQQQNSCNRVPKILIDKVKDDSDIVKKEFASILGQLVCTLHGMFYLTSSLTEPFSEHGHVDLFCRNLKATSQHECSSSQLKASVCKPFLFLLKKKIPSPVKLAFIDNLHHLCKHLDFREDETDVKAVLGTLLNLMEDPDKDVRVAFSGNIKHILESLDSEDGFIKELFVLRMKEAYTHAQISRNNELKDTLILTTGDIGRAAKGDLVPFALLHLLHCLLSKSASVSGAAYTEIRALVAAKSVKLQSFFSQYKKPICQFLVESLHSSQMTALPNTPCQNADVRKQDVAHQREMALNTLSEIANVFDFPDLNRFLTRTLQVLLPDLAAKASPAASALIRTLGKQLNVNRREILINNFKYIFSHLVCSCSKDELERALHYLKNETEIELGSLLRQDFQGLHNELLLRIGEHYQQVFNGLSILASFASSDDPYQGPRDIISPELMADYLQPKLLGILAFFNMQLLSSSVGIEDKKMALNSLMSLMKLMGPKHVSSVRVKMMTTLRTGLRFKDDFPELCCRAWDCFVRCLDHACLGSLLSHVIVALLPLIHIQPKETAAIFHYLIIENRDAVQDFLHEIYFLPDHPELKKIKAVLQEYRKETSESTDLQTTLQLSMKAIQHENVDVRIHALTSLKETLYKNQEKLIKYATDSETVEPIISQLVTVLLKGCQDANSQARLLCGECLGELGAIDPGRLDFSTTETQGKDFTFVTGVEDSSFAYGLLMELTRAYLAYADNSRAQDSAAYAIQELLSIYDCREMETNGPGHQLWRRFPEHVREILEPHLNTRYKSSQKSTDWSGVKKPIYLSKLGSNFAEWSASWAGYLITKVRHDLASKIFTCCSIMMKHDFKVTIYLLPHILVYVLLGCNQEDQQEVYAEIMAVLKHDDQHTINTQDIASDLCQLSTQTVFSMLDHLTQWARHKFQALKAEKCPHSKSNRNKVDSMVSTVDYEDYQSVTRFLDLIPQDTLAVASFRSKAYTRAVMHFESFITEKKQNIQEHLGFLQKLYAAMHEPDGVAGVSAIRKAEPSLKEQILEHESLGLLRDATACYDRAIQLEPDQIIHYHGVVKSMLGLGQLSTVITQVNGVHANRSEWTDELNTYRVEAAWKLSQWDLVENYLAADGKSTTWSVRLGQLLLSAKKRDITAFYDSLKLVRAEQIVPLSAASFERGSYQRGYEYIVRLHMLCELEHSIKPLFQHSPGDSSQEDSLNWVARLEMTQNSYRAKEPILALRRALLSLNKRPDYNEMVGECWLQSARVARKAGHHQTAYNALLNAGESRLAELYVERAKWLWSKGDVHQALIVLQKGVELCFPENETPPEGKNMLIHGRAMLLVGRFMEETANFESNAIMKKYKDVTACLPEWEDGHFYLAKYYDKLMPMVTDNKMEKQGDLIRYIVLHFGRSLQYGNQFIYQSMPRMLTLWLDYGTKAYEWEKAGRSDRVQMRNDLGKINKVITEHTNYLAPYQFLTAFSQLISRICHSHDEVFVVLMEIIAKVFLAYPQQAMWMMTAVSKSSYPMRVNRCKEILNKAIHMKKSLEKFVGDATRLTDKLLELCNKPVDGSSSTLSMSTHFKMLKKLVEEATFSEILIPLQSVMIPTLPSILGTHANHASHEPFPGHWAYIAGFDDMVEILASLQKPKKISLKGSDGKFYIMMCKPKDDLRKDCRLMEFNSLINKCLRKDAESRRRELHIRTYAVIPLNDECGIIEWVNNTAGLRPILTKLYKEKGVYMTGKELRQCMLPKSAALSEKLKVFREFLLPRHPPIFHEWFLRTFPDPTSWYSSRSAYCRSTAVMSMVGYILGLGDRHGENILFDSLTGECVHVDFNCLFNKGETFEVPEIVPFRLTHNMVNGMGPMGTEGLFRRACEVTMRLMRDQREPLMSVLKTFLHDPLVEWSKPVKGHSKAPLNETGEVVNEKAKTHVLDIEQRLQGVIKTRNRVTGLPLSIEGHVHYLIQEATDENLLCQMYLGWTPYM
Chain of NUAK family SNF1-like kinase 1 (Homo sapiens) (O60285 whole entry): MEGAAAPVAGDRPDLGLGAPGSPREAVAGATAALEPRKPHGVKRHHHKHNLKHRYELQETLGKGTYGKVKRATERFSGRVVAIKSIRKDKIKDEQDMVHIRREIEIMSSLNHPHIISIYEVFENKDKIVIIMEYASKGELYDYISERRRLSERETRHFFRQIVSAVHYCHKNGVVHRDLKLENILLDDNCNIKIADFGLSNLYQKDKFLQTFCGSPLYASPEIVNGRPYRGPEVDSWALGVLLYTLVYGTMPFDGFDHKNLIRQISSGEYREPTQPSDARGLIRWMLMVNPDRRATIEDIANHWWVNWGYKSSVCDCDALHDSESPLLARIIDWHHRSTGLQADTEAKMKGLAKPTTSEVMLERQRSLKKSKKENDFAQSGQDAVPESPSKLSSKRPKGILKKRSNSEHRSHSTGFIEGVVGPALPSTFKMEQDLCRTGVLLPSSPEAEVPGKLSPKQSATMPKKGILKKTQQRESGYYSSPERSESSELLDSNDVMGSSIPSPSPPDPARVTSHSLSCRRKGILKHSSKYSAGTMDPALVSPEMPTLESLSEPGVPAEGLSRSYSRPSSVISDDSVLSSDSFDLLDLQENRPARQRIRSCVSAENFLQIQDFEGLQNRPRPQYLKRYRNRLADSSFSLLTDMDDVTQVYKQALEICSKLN
Chain of Cyclin-dependent kinase 1 (P06493 whole entry): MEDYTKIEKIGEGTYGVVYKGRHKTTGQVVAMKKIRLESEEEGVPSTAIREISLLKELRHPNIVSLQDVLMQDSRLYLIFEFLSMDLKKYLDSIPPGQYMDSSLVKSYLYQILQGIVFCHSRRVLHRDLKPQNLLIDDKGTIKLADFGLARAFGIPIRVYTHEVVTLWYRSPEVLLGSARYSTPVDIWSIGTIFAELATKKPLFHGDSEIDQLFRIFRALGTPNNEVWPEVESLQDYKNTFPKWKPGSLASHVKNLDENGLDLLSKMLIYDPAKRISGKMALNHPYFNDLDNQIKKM
Chain of Cyclin-dependent kinase 12 (Q9NYV4 whole entry): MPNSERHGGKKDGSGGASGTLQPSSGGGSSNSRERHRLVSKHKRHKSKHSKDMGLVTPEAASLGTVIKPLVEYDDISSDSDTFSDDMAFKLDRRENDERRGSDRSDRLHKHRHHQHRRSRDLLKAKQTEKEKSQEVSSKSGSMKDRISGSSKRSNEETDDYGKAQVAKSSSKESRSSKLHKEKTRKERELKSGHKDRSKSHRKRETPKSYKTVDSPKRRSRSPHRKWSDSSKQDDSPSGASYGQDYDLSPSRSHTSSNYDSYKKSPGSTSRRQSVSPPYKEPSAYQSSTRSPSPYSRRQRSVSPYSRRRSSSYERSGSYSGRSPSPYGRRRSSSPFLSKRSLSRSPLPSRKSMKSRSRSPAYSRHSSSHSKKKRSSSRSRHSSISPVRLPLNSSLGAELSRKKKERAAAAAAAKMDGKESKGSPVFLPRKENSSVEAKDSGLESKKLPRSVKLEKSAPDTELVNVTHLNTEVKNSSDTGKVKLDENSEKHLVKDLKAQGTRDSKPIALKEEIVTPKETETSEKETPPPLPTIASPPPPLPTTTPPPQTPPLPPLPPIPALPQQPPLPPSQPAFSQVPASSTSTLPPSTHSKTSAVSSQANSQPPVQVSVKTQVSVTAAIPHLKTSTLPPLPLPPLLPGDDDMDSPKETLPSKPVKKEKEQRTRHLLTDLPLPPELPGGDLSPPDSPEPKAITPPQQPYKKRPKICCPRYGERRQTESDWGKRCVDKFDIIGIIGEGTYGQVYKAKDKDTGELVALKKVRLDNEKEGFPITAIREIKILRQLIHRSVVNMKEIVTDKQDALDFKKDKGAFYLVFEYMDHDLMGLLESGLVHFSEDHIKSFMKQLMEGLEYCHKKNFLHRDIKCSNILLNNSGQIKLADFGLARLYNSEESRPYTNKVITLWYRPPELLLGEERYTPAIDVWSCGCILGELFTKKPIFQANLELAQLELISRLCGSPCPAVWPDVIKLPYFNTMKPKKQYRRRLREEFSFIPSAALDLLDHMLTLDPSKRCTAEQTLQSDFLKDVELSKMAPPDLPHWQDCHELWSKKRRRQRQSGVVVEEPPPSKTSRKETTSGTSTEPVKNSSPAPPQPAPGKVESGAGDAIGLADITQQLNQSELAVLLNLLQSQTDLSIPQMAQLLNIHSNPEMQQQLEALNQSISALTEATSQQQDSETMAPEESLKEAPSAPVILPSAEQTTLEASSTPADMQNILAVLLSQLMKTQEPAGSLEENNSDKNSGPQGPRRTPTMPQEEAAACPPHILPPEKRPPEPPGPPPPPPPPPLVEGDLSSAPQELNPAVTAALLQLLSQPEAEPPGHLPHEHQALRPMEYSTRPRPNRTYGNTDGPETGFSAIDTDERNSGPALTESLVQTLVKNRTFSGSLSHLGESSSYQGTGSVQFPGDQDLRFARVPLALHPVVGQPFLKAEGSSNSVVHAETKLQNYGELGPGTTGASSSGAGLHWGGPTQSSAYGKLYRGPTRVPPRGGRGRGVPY

In the case of NC(Cc1cc(O)c(O)cc1O)C(=O)O (stereo not given), the inhibition [1] is reported as greater than 60% and the IC50 [2] is reported as 1100 nM.

C[C@@H]1CN(CC(=O)Nc2ccc3c(c2)Cc2cccc(-c4cc(=O)cc(N5CCOCC5)o4)c2S3)C[C@H](C)O1 showed an Activity (U-87 MG) greater than 70% and an Activity [3] greater than 50%.

For CCc1[nH]c(/C=C2\C(=O)Nc3ccc(S(=O)(=O)Nc4ccccc4)cc32)c(CC)c1CCC(=O)O, the IC50 [4] was 130 nM.

Work on CN(C)C/C=C/C(=O)Nc1ccc(C(=O)Nc2cccc(Nc3ncc(Cl)c(-c4c[nH]c5ccccc45)n3)c2)cc1 yielded an IC50 [5] of 225 nM and an IC50 [6] of 864 nM.

With O=C1NC(=S)NC(=O)C1=C/C=C/c1ccco1 the inhibition [1] was greater than 60% and the IC50 [2] was less than 5000 nM.

Cn1cccc1C=CC(=O)O gave an inhibition [1] greater than 60% and an IC50 [2] of less than 5000 nM.

C=CCn1c(=O)c2cnc(Nc3ccc(N4CCN(C(=O)OC)CC4)cc3)nc2n1-c1cccc(C(C)(C)O)n1 showed an IC50 (Wee1-like protein kinase) of 2.8 nM.

CC(C)Oc1c(-c2ccco2)c(=O)c1=O gave an inhibition [1] greater than 60% and an IC50 [2] of less than 5000 nM.

With Oc1ccc(N=Cc2ccc[nH]2)cc1N=Cc1ccc[nH]1 the inhibition [1] was greater than 60% and the IC50 [2] was less than 5000 nM.

O=C(O)c1ccc(/C=N/c2nc[nH]n2)cc1 showed an inhibition [1] greater than 60% and an IC50 [2] of less than 5000 nM.

Work on O=c1cc(-c2cccc3c2Sc2ccccc2S3)oc(N2CCCCC2)c1 yielded an IC50 [7] of 2960 nM.

In the case of O=C1C=CC(=NOS(=O)(=O)c2cc(Cl)ccc2Cl)C=C1, the inhibition [1] is reported as greater than 60% and the IC50 [2] is reported as less than 5000 nM.

Work on Cn1cccc1C=C1C(=O)NC(=S)NC1=O yielded an inhibition [1] greater than 60% and an IC50 [2] of less than 5000 nM.

Cc1ccc2[nH]c(CCc3cccc(NC(=O)C4CCCN(S(=O)(=O)N5CCCC5)C4)c3)nc2c1 (stereo not given) gave a viability at 10 µM (BXPC-3) greater than 90% and an inhibition of growth at 10 µM (CAPAN-1) of 50%.

O=C(O)C1=CC(=C(c2ccc(O)c(C(=O)O)c2)c2ccc(O)c(C(=O)O)c2)C=CC1=O [AURINTRICARBOXYLIC ACID] showed an inhibition [1] greater than 60% and an IC50 [2] of less than 5000 nM.

CC(C)n1c(=O)n(C)c2cnc3cc(F)c(-c4ccc(OCCCN5CCCCC5)nc4)cc3c21 [AZD-1390] showed an inhibition [8] greater than 50%, an inhibition [9] greater than 50% and an IC50 [10] of no less than 1000 nM. The IC50 [11] was no less than 1000 nM, the inhibition [12] was greater than 50% and the IC50 [13] was 6550 nM. For the same compound, the IC50 [14] was no less than 1000 nM.

Work on Cc1cc2ncnn2cc1Nc1ncc2c(n1)n(C1CCOCC1)c(=O)n2C [AZD-7648] yielded an IC50 [14] of 0.6 nM.

In the case of CCc1cnn2c(NCc3ccc[n+]([O-])c3)cc(N3CCCC[C@H]3CCO)nc12 [DINACICLIB], the “fold change (FC)” value (BT-549) is reported as 2.5, the “fold change (FC)” value (HCC1937) is reported as 2.5 and the “fold change (FC)” value (HCC38) is reported as 2.5. For the same compound, the “fold change (FC)” value (Hs-578T) was 2.5, the “fold change (FC)” value (MDA-MB-436) was 2.5 and the “fold change (FC)” value (MDA-MB-468) was 2.5. For the same compound, the “fold change (FC)” value (BT-20) was 2.5, the “fold change (FC)” value (SUM149PT) was 2.5 and the “fold change (FC)” value (MDA-MB-231) was 2.5.

For Cc1cc2c(C(C)C)c(O)c(O)c(C=O)c2c(O)c1-c1c(C)cc2c(C(C)C)c(O)c(O)c(C=O)c2c1O [GOSSYPOL], the inhibition [1] was greater than 60% and the IC50 [2] was less than 5000 nM.

Nc1nn2cc(F)cnc2c1C(=O)Nc1cncc(F)c1N1CCC(C(=O)N2CCN(C3COC3)CC2)CC1 [M4344] showed a Ki [10] of no more than 0.15 nM.

Work on COc1ccc([C@@H](O)c2cc(-c3ncnc4cc(N5CCOCC5)ccc34)c(F)cc2Cl)nn1 [NEDISERTIB] yielded an IC50 [14] of no more than 3 nM.

CCN(CC)CCOc1ccc(Nc2ncc3cc(-c4c(Cl)cccc4Cl)c(=O)n(C)c3n2)cc1 [PD-0166285] gave an IC50 [15] of less than 100 nM.

In the case of O=C(O[C@@H]1O[C@@H]2COC(=O)c3cc(O)c(O)c(O)c3-c3c(cc(O)c(O)c3O)C(=O)O[C@H]2[C@H](O)[C@H]1O)c1cc(O)c(O)c(O)c1 [STRICTININ], the IC50 [16] is reported as 1500 nM.
